# Measured values reported in patent publication US4024224A, “14-Aminodaunomycins, their preparation and use” (priority 1974, dated 1977).
# Where two headings read alike, the source gives them in different places.
# Tests used:
# [1] = Proliferation of uninfected mouse embryo fibroblasts (MEF); type: cell-based; settings: mouse, mouse embryo fibroblasts; calculated on dose-effects lines; uninfected MEF, 3 days treatment; read-out: MEF proliferation ID 50 (Inhibiting Dose 50%)
# Experimental: (§1) Mouse embryo fibroblasts (MEF) were plated on 35 mm. Falcon plastic dishes and infected 24 hours later with Moloney Sarcoma Virus (MSV) in the presence of DEAE-dextran (25 μg./ml.). The samples were then treated for 3 days with different concentrations of the compounds of the invention. The number of foci of transformed cells was microscopically determined 5 days after the infection. Uninfected MEF were similarly treated and at the end of the experiment, the cells were counted in an haemocytometer. In all the experiments, the cells were incubated in a 5% CO2 incubator at 37° C.
# (§2) For use in these tests the compounds were dissolved in distilled water or in 5% ethyl alcohol in distilled water and then diluted in culture medium.
# Mouse Embryo Fibroblasts = experiment: as above; type: cell-based; settings: Mus musculus, Fibroblast, 72 h, uninfected MEF, 3 days treatment, read-out: MEF No. of cells
# Experimental: as §1, §2
# [2] = tested on: Moloney Sarcoma Virus (MSV); experiment: Inhibition of MSV-M foci formation in mouse embryo fibroblasts; type: cell-based; settings: Fibroblast, 120 h, 3 days treatment
# Experimental: as §1, §2
# The results of these tests are reported in Table I in terms of ID50 values (Inhibiting Dose 50%), calculated on dose-effects lines.
# Solid Sarcoma 180 = experiment: Antitumor activity and toxicity on solid Sarcoma 180 in CD 1 mice; type: in vivo; settings: for Tumor Volume T/C %: 11th day; for Toxic Deaths: deaths/total
# Experimental: (§3) The toxicity of the test compounds was evaluated by macroscopic autoptic examination mainly in terms of reduction in spleen size. The comparison of the effectiveness of the test compounds is based on the maximum increase in median survival time, as compared to untreated controls, over the dose range used. The number of Long Term Survivors (LTS) refers to tumor-free mice at the end of the experiment (60 days). Solid Sarcoma 180 was implanted subcutaneously by trocar in the flank of CD 1 mice according to standard methods. The mice were treated i.v. for 5 consecutive days, starting 1 day after the tumor implant. On the 11th day the tumor volume was measured by means of a caliper and evaluated according to the formula (a^2 × b)/2, a and b being the minimum and the maximum diameters respectively.
# [3] = Antitumor activity and toxicity on ascites Sarcoma 180 in CD 1 mice; type: in vivo; settings: mouse, in vivo, ip, read-out: % Toxic Deaths
# Experimental: (§4) The antitumor activity of the compounds of the invention was tested on ascites Sarcoma 180.
# (§5) Three month old CD 1 mice were used. Sarcoma 180 ascites cells were inoculated intraperitoneally (10^6 cells/mouse). For use in these tests, the compounds were dissolved in distilled water or in 5% ethyl alcohol in distilled water, then diluted with Ringers solution and administered i.p. 1 day after the tumor implant (10 ml./kg. of body weight).
# as §3
# ascites Sarcoma 180 = experiment: as above; type: in vivo; settings: for % LTS: 60 days; for LTS (Long Term Survivors after 60 days): survivors/total; for Toxic Deaths: deaths/total
# Experimental: as §4, §5, §3
# [4] = 3 mg./kg. i.v. for 5 consecutive days
# [5] = 4 mg./kg. i.v. for 5 consecutive days
# [6] = 5 mg./kg. i.v. for 5 consecutive days
# [7] = 0.2 mg./kg. i.p. 1 day after tumor implant
# [8] = 1 mg./kg. i.p. 1 day after tumor implant
# [9] = 5 mg./kg. i.p. 1 day after tumor implant
# [10] = 25 mg./kg. i.p. 1 day after tumor implant
# [11] = 50 mg./kg. i.p. 1 day after tumor implant
# [12] = 100 mg./kg. i.p. 1 day after tumor implant
structure (smiles),measurement,setting,value
COc1cccc2c1C(=O)c1c(O)c3c(c(O)c1C2=O)C[C@@](O)(C(=O)CN1CCOCC1)C[C@@H]3O[C@H]1C[C@H](N)[C@H](O)[C@H](C)O1 [14-(N-morpholino)-daunomycin],IC50 at 72 h,[1],0.5 µg/mL
same,activity at 0.0062 µg/mL,Mouse Embryo Fibroblasts; dose 0.0062 μg/ml,81%
same,activity at 0.025 µg/mL,Mouse Embryo Fibroblasts; dose 0.0250 μg/ml,68%
same,activity at 0.1 µg/mL,Mouse Embryo Fibroblasts; dose 0.1 μg/ml,31%
same,activity at 0.4 µg/mL,Mouse Embryo Fibroblasts; dose 0.4 μg/ml,21%
same,IC50,"[2]; calculated on dose-effects lines, read-out: MSV-M foci ID 50 (Inhibiting Dose 50%)",0.032 µg/mL
same,activity at 0.0062 µg/mL,"[2]; dose 0.0062 μg/ml, foci counted 5 days after infection, read-out: MSV-M No. of foci",78%
same,activity at 0.025 µg/mL,"[2]; dose 0.0250 μg/ml, foci counted 5 days after infection, read-out: MSV-M No. of foci",69%
same,activity at 0.1 µg/mL,"[2]; dose 0.1 μg/ml, foci counted 5 days after infection, read-out: MSV-M No. of foci",17%
same,activity at 0.4 µg/mL,"[2]; dose 0.4 μg/ml, foci counted 5 days after infection, read-out: MSV-M No. of foci",0%
same,Tumor Volume T/C %,Solid Sarcoma 180; [4],77%
same,Toxic Deaths,Solid Sarcoma 180; [4],0/10
same,Tumor Volume T/C %,Solid Sarcoma 180; [5],64%
same,Toxic Deaths,Solid Sarcoma 180; [5],0/10
same,Tumor Volume T/C %,Solid Sarcoma 180; [6],69%
same,Toxic Deaths,Solid Sarcoma 180; [6],0/10
same,mortality,[3]; 0.2 mg./kg. i.p.,0%
same,mortality,[3]; 1 mg./kg. i.p.,0%
same,mortality,[3]; 5 mg./kg. i.p.,0%
same,mortality,[3]; 25 mg./kg. i.p.,0%
same,mortality,[3]; 50 mg./kg. i.p.,14%
same,mortality,[3]; 100 mg./kg. i.p.,85%
same,"T/C (median survival time, % over untreated controls)",ascites Sarcoma 180; [7],103%
same,% LTS,ascites Sarcoma 180; [7],0%
same,LTS (Long Term Survivors after 60 days),ascites Sarcoma 180; [7],0/10
same,Toxic Deaths,ascites Sarcoma 180; 0.2 mg./kg. i.p.,0/10
same,"T/C (median survival time, % over untreated controls)",ascites Sarcoma 180; [8],111%
same,% LTS,ascites Sarcoma 180; [8],0%
same,LTS (Long Term Survivors after 60 days),ascites Sarcoma 180; [8],0/10
same,Toxic Deaths,ascites Sarcoma 180; 1 mg./kg. i.p.,0/10
same,"T/C (median survival time, % over untreated controls)",ascites Sarcoma 180; [9],133%
same,% LTS,ascites Sarcoma 180; [9],30%
same,LTS (Long Term Survivors after 60 days),ascites Sarcoma 180; [9],3/10
same,Toxic Deaths,ascites Sarcoma 180; 5 mg./kg. i.p.,0/10
same,"T/C (median survival time, % over untreated controls)",ascites Sarcoma 180; [10],223%
same,% LTS,ascites Sarcoma 180; [10],29%
same,LTS (Long Term Survivors after 60 days),ascites Sarcoma 180; [10],5/17
same,Toxic Deaths,ascites Sarcoma 180; 25 mg./kg. i.p.,0/17
same,"T/C (median survival time, % over untreated controls)",ascites Sarcoma 180; [11],100%
same,% LTS,ascites Sarcoma 180; [11],0%
same,LTS (Long Term Survivors after 60 days),ascites Sarcoma 180; [11],0/7
same,Toxic Deaths,ascites Sarcoma 180; 50 mg./kg. i.p.,1/7
same,"T/C (median survival time, % over untreated controls)",ascites Sarcoma 180; [12],50%
same,% LTS,ascites Sarcoma 180; [12],14%
same,LTS (Long Term Survivors after 60 days),ascites Sarcoma 180; [12],1/7
same,Toxic Deaths,ascites Sarcoma 180; 100 mg./kg. i.p.,6/7
